Source: patent US8163909B2, “Substituted hydroxyethyl amine compounds as beta-secretase modulators and methods of use” (Amgen Inc., priority 2007, dated 2012)
Where two headings read alike, the source gives them in different places.

How the values were obtained:
CYP2D6 = CYP2D6 (Homo sapiens, UniProt P10635); experiment: CYP2D6 inhibition assay (bufuralol, pooled human liver microsomes)
CYP3A4 (CYP3A) = CYP3A4 (CYP3A) (Homo sapiens, UniProt P08684); experiment: in vitro; details: microsomes, pH 7.4;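 note: inhibition of CYP3A-mediated 1-hydroxymidazolam formation after 10 min incubation with NADPH, quantified by HPLC MS relative to metabolite produced without test compound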
Abeta peptide = experiment: In vivo inhibition of beta-secretase (reduction of Abeta peptide in brain and cerebrospinal fluid); parameters: species or system rat; details: Rattus norvegicus, po, 4 h, orally administered at 30 mg/kg dose, measured after 4 hours;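 note: abeta peptide quantified by sandwich ELISA with electrochemiluminescence readout in rat brain supernatant or CSF, relative to vehicle-dosed control animals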
[1] = Microsomal stability assay, rat liver microsomes;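 note: rat liver microsomes (0.25 mg/mL) with about 1 µM compound plus 1 mM NADPH, pH 7.4, 37 °C for 30 min, parent left measured by LC-MS/MS against 0 min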
[2] = target: Beta Secretase enzyme (BACE) (Homo sapiens, UniProt P56817); experiment: In vitro enzymatic BACE FRET (fluorescence resonance energy transfer) assay; assay type: biochemical;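 note: fluorescence read after 1 h with 50 nM quenched peptide substrate spanning the BACE cleavage site, in pH 4.2 acetate buffer containing 10% DMSO and nonionic detergent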
[3] = Microsomal stability assay, human liver microsomes;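 note: pooled human liver microsomes at 0.25 mg/mL with 1 µM compound and NADPH at 37 °C, pH 7.4, for 30 min, unchanged parent quantified by LC-MS/MS against the 0 min sample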
[4] = system: Aβ40 in conditioned medium of cells stably expressing Amyloid Precursor Protein (APP); experiment: In vitro BACE cell-based assay (Aβ40 in conditioned medium, sandwich ELISA); details: Homo sapiens;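 note: compounds added as a dilution series, secreted peptide quantified by europium time-resolved fluorescence readout, potency fitted from percent of control versus compound concentration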
[5] = 2D6 IC50 (uM), CYP2D6 inhibition
[6] = rat cerebrospinal fluid, read-out: percent reduction of abeta peptide in the cerebrospinal fluid of the rat
[7] = BACE enzyme assay IC50, read-out: BACE1 FRET assay
[8] = HEK293, HEK cell-based assay IC50, read-out: HEK cell assay
[9] = 2D6 IC50 (uM), CYP enzyme inhibition
[10] = rat brain, read-out: percent reduction of abeta peptide in the brain of the rat
[11] = BACE enzyme assay, IC50's in uM, read-out: BACE1 FRET assay
[12] = HEK293, HEK cell-based assay, IC50's in uM, read-out: HEK cell assay
[13] = read-out: BACE1 FRET assay (IC50)
[14] = HEK293, HEK cells, read-out: HEK cell assay (IC50)
[15] = BACE enzyme assay, read-out: BACE1 FRET assay
[16] = HEK293, HEK cells, read-out: HEK cell assay

Sequence of Beta Secretase enzyme (BACE) (P56817 46-501): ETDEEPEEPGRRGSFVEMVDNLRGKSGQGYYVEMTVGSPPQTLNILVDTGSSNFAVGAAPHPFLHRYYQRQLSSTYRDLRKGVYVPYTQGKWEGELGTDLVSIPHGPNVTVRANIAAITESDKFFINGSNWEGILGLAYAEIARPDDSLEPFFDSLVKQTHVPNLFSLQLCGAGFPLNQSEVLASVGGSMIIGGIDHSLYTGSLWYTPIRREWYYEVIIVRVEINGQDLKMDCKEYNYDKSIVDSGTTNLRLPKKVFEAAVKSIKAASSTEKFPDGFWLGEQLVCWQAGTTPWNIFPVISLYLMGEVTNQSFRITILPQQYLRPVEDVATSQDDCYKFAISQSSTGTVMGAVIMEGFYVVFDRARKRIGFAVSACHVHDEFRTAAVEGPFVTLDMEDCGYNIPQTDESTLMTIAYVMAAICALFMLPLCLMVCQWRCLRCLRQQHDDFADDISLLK
Sequence of CYP3A4 (CYP3A) (P08684 2-503): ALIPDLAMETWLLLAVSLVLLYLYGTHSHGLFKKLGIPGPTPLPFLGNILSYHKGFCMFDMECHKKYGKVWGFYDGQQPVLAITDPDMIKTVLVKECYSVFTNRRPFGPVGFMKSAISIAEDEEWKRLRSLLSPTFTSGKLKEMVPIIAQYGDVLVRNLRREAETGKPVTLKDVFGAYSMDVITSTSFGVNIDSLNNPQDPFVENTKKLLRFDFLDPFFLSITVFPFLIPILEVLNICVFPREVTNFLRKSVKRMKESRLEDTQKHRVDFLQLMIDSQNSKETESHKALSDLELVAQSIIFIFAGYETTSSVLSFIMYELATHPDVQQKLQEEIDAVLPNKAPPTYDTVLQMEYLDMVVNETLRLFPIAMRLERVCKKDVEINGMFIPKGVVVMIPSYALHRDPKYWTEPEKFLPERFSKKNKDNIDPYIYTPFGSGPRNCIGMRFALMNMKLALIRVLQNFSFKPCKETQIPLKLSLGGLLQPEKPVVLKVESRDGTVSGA
Sequence of CYP2D6 (P10635 whole entry): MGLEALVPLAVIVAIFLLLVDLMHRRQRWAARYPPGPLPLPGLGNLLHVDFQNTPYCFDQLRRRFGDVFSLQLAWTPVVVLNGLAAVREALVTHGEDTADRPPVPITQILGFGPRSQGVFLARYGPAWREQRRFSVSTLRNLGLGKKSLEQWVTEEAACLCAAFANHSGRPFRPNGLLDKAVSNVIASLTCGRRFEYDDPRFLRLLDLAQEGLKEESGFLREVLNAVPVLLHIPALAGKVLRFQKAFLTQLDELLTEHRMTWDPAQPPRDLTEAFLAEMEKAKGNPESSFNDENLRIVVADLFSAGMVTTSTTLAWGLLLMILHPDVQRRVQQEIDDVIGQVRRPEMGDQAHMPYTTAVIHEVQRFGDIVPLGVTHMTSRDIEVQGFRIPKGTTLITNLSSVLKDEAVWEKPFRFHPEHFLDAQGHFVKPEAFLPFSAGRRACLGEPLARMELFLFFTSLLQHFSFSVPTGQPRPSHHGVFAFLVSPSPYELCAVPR

SMILES	IC50 (CYP2D6; [5]) [µM]	IC50 (CYP3A4 (CYP3A)) [nM]	inhibition in vivo at 30 mg/kg (Abeta peptide; [6]) [%]	RLM ([1]; rat liver microsomes) [µL/min/mg]	IC50 [2, 7] [µM]	HLM ([3]; human liver microsomes) [µL/min/mg]	IC50 [4, 8] [µM]	IC50 (CYP2D6; [9]) [µM]	inhibition in vivo at 30 mg/kg (Abeta peptide; [10]) [%]	RLM ([1]; rat liver microsomal data) [µL/min/mg]	IC50 [2, 11] [µM]	HLM ([3]; human liver microsomal data) [µL/min/mg]	IC50 [4, 12] [µM]	IC50 (CYP2D6; 2D6 IC50, CYP2D6 inhibition) [µM]	IC50 [2, 13] [µM]	IC50 [4, 14] [µM]	IC50 [2, 15] [µM]	IC50 [4, 16] [µM]	IC50 (CYP2D6; 2D6 IC50, CYP enzyme inhibition) [µM]	IC50 ([4]; HEK293, cell-based assay, HEK cells, IC50's in uM, read-out: HEK cell assay) [µM]
CO[C@H](C)C(=O)N[C@@H](Cc1cc(F)cc(F)c1)[C@H](O)CN[C@H]1CC2(CCC2)Oc2c1cc(CC(C)C)nc2-c1ccncc1 [Example 687]	0.2	≤ 30	10 to 80	91	0.008	27	0.016													
C#Cc1cccc(C[C@H](NC(=O)COC)[C@H](O)CN[C@H]2CC3(CCC3)Oc3ncc(CC(C)(F)F)cc32)c1 [Example 829]		200						2.3	≥ 30	23	0.007	40	0.016							
CC(=O)N[C@@H](Cc1cccc(-c2nccs2)c1)[C@H](O)CN[C@H]1CC2(CCC2)Oc2ccc(CC(C)(C)C)cc21 [Example 641, N-((1S,2R)-3-(((4S)-6-(2,2-dimethylpropyl)-3,4-dihydrospiro[chromene-2,1′-cyclobutan]-4-yl)amino)-2-hydroxy-1-(3-(1,3-thiazol-2-yl)benzyl)propyl)acetamide]		700	10 to 80	165		102								0.3	0.006	0.029				
CO[C@H](C)C(=O)N[C@@H](Cc1cc(F)cc(F)c1)[C@H](O)CN[C@H]1CC2(CCC2)Oc2c1cc(CC(C)C)nc2-c1cncn1C [Example 710]	2.8	100	10 to 80	39	0.026	16	0.018													
CC(=O)N[C@@H](Cc1cc(F)cc(-c2nccs2)c1)[C@H](O)CN[C@H]1CC2(CCC2)Oc2ncc(CC(C)(C)C)cc21 [Example 643, N-((1S,2R)-3-(((4′S)-6′-(2,2-dimethylpropyl)-3′,4′-dihydrospiro[cyclobutane-1,2′-pyrano[2,3-b]pyridin]-4′-yl)amino)-1-(3-fluoro-5-(1,3-thiazol-2-yl)benzyl)-2-hydroxypropyl)acetamide]		100	10 to 80	56		68			5 to 80					0.7	0.002	0.012				
CO[C@H](C)C(=O)N[C@@H](Cc1ccc2c(c1)OCO2)[C@H](O)CN[C@H]1CC2(CCC2)Oc2ncc([C@@H]3CC3(C)C)cc21 [Example 578]		100		185		36			5 to 80					2	0.018	0.019				
COCC(=O)N[C@@H](Cc1cc(F)cc(-c2nccs2)c1)[C@H](O)CNC1CC2(CCC2)Oc2ncc(CC(C)(F)F)cc21 (stereo partly drawn) [Example 764, N-((1S,2R)-3-((6′-(2,2-difluoropropyl)-3′,4′-dihydrospiro[cyclobutane-1,2′-pyrano[2,3-b]pyridin]-4′-yl)amino)-1-(3-fluoro-5-(1,3-thiazol-2-yl)benzyl)-2-hydroxypropyl)-2-methoxyacetamide]		300	10 to 80					0.7		33	0.011	41	0.018							
COCC(=O)N[C@@H](Cc1cc(F)cc(-c2nccs2)c1)[C@H](O)CN[C@H]1CC2(CCC2)Oc2cnc(CC(C)(C)C)cc21 [Example 782, N-((1S,2R)-3-(((4′S)-6′-(2,2-dimethylpropyl)-3′,4′-dihydrospiro[cyclobutane-1,2′-pyrano[2,3-c]pyridin]-4′-yl)amino)-1-(3-fluoro-5-(1,3-thiazol-2-yl)benzyl)-2-hydroxypropyl)-2-methoxyacetamide]		300	10 to 80					0.4	5 to 80	130	0.015	94	0.036							
CO[C@H](C)C(=O)N[C@@H](Cc1cccc(-c2ncco2)c1)[C@H](O)CN[C@H]1CC2(CCC2)Oc2ncc(CC(C)(C)C)cc21 [Example 836, (2R)-N-((1S,2R)-3-(((4′S)-6′-(2,2-dimethylpropyl)-3′,4′-dihydrospiro[cyclobutane-1,2′-pyrano[2,3-b]pyridin]-4′-yl)amino)-2-hydroxy-1-(3-(1,3-oxazol-2-yl)benzyl)propyl)-2-methoxypropanamide]		200	10 to 80					0.7		56	0.013	56	0.015							
CC(=O)N[C@@H](Cc1ccccc1)[C@H](O)CN[C@H]1CC2(CCC2)Oc2c1cc(CC(C)(C)C)nc2-c1ccncc1 [Example 542]		200	10 to 80					≥ 27		193		36					0.024	0.103		
CC(=O)N[C@@H](Cc1cc(F)cc(-c2cncs2)c1)[C@H](O)CN[C@H]1CC2(CCC2)Oc2ncc(CC(C)(C)C)cc21 [Example 671, N-((1S,2R)-3-(((4′S)-6′-(2,2-dimethylpropyl)-3′,4′-dihydrospiro[cyclobutane-1,2′-pyrano[2,3-b]pyridin]-4′-yl)amino)-1-(3-fluoro-5-(1,3-thiazol-5-yl)benzyl)-2-hydroxypropyl)acetamide]	0.4	100	10 to 80	48	0.005	99	0.012													
CC(=O)N[C@@H](Cc1cccc(F)c1)[C@H](O)CN[C@H]1CC2(CCC2)Oc2c1cc(CC(C)(C)C)nc2-n1ccnc1 [Example 506]		100	10 to 80					2.2		61		14					0.021	0.02		
C#Cc1cccc(C[C@H](NC(=O)[C@@H](C)OC)[C@H](O)CN[C@H]2CC3(CCC3)Oc3ncc(CC(C)(C)C)cc32)c1 [Example 849, (2R)-N-((1S,2R)-3-(((4′S)-6′-(2,2-dimethylpropyl)-3′,4′-dihydrospiro[cyclobutane-1,2′-pyrano[2,3-b]pyridin]-4′-yl)amino)-1-(3-ethynylbenzyl)-2-hydroxypropyl)-2-methoxypropanamide]		50	≥ 50							43	0.005	18							3.2	0.008
COCC(=O)N[C@@H](Cc1ccc2c(c1)OCO2)[C@H](O)CN[C@H]1CC2(CCC2)Oc2ncc([C@@H]3CC3(C)C)cc21 [Example 575, N-((1S,2R)-1-(1,3-benzodioxol-5-ylmethyl)-3-(((4′S)-6′-((1R)-2,2-dimethylcyclopropyl)-3′,4′-dihydrospiro[cyclobutane-1,2′-pyrano[2,3-b]pyridin]-4′-yl)amino)-2-hydroxypropyl)-2-methoxyacetamide]		100	10 to 80	194		33								1.5	0.01	0.016				
